# Results published in ChEMBL document CHEMBL4699661, “Synthesis and Biological Characterization of Cyclic Disulfide-Containing Peptide Analogs of the Multifunctional Opioid/Neuropeptide FF Receptor Agonists That Produce Long-Lasting and Nontolerant Antinociception” (J Med Chem, 2020).
# pEC50: −log10 of the molar value. Active and inactive are the calls of the source. The calls are words filed in the database; no cut-off is given here. Non-standard residues stand in square brackets, D forms with d. Residues, ends and D or L forms follow the SMILES beside them.
# How the values were obtained:
# [1] = Ratio of drug level in brain to plasma in mouse; assay type: ADME; conditions: read-out: BPR
# Mu-type opioid receptor = Mu-type opioid receptor (Homo sapiens, UniProt P35372); test: Agonist activity at mu opioid receptor (unknown origin) expressed in HEK293-A cells assessed as inhibition of forskolin-stimulated cAMP accumulation incubated for 30 mins by competition PKA binding assay; assay type: functional, cell-based
# [2] = target: Kappa-type opioid receptor (Homo sapiens, UniProt P41145); test: Agonist activity at kappa opioid receptor (unknown origin) expressed in HEK293-A cells assessed as inhibition of forskolin-stimulated cAMP accumulation incubated for 30 mins by competition PKA binding assay; assay type: functional, cell-based; conditions: for pEC50: read-out: EC50
# [3] = target: T1, Delta-type opioid receptor (Homo sapiens, UniProt P41143); test: Agonist activity at delta opioid receptor (unknown origin) expressed in HEK293-A cells assessed as inhibition of forskolin-stimulated cAMP accumulation incubated for 30 mins by competition PKA binding assay; assay type: functional, cell-based
# [4] = target: T1, Delta-type opioid receptor; test: Agonist activity at delta opioid receptor (unknown origin) expressed in HEK293-A cells assessed as inhibition of forskolin-stimulated cAMP accumulation incubated for 30 mins by competition PKA binding assay relative to control; assay type: functional, cell-based
# [5] = target: T2, Neuropeptide FF receptor 1 (Homo sapiens, UniProt Q9GZQ6); test: Agonist activity at NPFFR1 (unknown origin) expressed in HEK293-A cells assessed as inhibition of forskolin-stimulated cAMP accumulation incubated for 30 mins by competition PKA binding assay; assay type: functional, cell-based
# [6] = target: T2, Neuropeptide FF receptor 1; test: Agonist activity at NPFFR1 (unknown origin) expressed in HEK293-A cells assessed as inhibition of forskolin-stimulated cAMP accumulation incubated for 30 mins by competition PKA binding assay relative to control; assay type: functional, cell-based; conditions: filed as agonist
# [7] = target: T3, Neuropeptide FF receptor 2 (Homo sapiens, UniProt Q9Y5X5); test: Agonist activity at NPFFR2 (unknown origin) expressed in HEK293-A cells assessed as inhibition of forskolin-stimulated cAMP accumulation incubated for 30 mins by competition PKA binding assay; assay type: functional, cell-based
# [8] = target: T3, Neuropeptide FF receptor 2; test: Agonist activity at NPFFR2 (unknown origin) expressed in HEK293-A cells assessed as inhibition of forskolin-stimulated cAMP accumulation incubated for 30 mins by competition PKA binding assay relative to control; assay type: functional, cell-based; conditions: filed as agonist
# [9] = Half life in 100% mouse plasma at 0.01 mM by RP-HPLC analysis; assay type: ADME, cell-free
# Mus musculus [10] = test: Analgesic activity in icv dosed Kunming mouse by radiant heat tail flick test; assay type: functional
# Mus musculus [11] = test: Analgesic activity in Kunming mouse assessed as increase in antinociceptive effect at 0.03 pmol, icv pre-treated with 10 nmol, icv NPFF receptor antagonist RF9 by radiant heat tail flick test; assay type: functional, organism-based
# Mus musculus [12] = test: Analgesic activity in sc dosed Kunming mouse by radiant heat tail flick test; assay type: functional
# Mus musculus [13] = test: Analgesic activity in sc dosed Kunming mouse assessed as time duration during which antinociception lasted by radiant heat tail flick test; assay type: functional
# Mus musculus [14] = test: Analgesic activity in sc dosed Kunming mouse pre-treated with 1 mg/kg, sc opioid receptor antagonist naloxone by radiant heat tail flick test; assay type: functional, organism-based
# Mus musculus [15] = test: Analgesic activity in sc dosed Kunming mouse pre-treated with 1 mg/kg, sc peripherally restricted opioid receptor antagonist naloxone methiodide by radiant heat tail flick test; assay type: functional, organism-based
# Mus musculus [16] = test: Analgesic activity in sc dosed Kunming mouse pre-treated with 5 nmol, icv peripherally restricted opioid receptor antagonist naloxone methiodide by radiant heat tail flick test; assay type: functional, organism-based
# Mus musculus [17] = test: Analgesic activity in sc dosed Kunming mouse dosed once daily for 8 consecutive days by radiant heat tail flick test; assay type: functional, organism-based; conditions: time 8.0 day
# [18] = Half life in 15% mouse brain at 0.01 mM by RP-HPLC analysis; assay type: ADME, tissue-based
# Mus musculus [19] = test: Analgesic activity in icv dosed Kunming mouse dosed once daily for 8 consecutive days by radiant heat tail flick test; assay type: functional, organism-based; conditions: time 8.0 day
# Mus musculus [20] = test: Analgesic activity in icv dosed Kunming mouse assessed as time duration during which supraspinal antinociception lasted by radiant heat tail flick test; assay type: functional
# Mus musculus [21] = test: Analgesic activity in Kunming mouse at 30 pmol, icv by radiant heat tail flick test; assay type: functional
# Mus musculus [22] = test: Analgesic activity in Kunming mouse at 0.09 umol/kg, sc by radiant heat tail flick test; assay type: functional; conditions: dose 0.09 µmol/kg
# [23] = Toxicity in Kunming mouse assessed as effect on motor coordination at 30 pmol, icv by rotarod test; conditions: in vivo, icv_or_intrathecal
# [24] = Toxicity in Kunming mouse assessed as effect on motor coordination at 0.09 umol/kg, sc by rotarod test; assay type: organism-based; conditions: in vivo, dose 0.09 µmol/kg
# [25] = Toxicity in Kunming mouse assessed as increase in total travelled distance at 0.09 umol/kg, sc by open field assay; assay type: organism-based; conditions: in vivo, dose 0.09 µmol/kg
# [26] = Toxicity in Kunming mouse assessed as activation of reward circuits at 0.09 umol/kg, sc by CPP test; assay type: organism-based; conditions: in vivo, dose 0.09 µmol/kg
# [27] = Toxicity in Kunming mouse assessed as increase in jumping counts after naloxone-injection at 0.09 umol/kg, sc by naloxone-precipitated withdrawal test; assay type: organism-based; conditions: in vivo, dose 0.09 µmol/kg
# [28] = Induction of constipation in sc dosed Kunming mouse assessed as inhibition of gastrointestinal motility by charcoal based gastrointestinal motility test; assay type: organism-based; conditions: in vivo
# [29] = Safety index, ratio of ED50 for induction of constipation in sc dosed Kunming mouse to ED50 for analgesic activity in sc dosed Kunming mouse; assay type: organism-based; conditions: in vivo, read-out: Ratio ED50
Compound,pEC50 (Mu-type opioid receptor),pEC50 [2],pEC50 [3],pEC50 [5],Emax [6],pEC50 [7],Emax [8],half-life at 10 µM [9],ED50 (Mus musculus [10]),Activity (Mus musculus [11]),ED50 (Mus musculus [12]),Time (Mus musculus [13]),Activity (Mus musculus [17]),Emax ([4]; filed as agonist),half-life at 10 µM [18],Activity (Mus musculus [19]),Time (Mus musculus [20]),also measured
CN1CC[C@]23c4c5ccc(O)c4O[C@H]2[C@@H](O[C@@H]2O[C@H](C(=O)O)[C@@H](O)[C@H](O)[C@H]2O)C=C[C@H]3[C@H]1C5 [MORPHINE GLUCURONIDE],,,,,,,,,,,,,,,,,,Kp [1]: 0.05
N=C(N)NCCC[C@H](NC(=O)[C@H](CCC(N)=O)NC(=O)[C@@H]1CCCN1C(=O)[C@H](CS)NC(=O)[C@H](Cc1ccccc1)NC(=O)CNC(=O)[C@H](CS)NC(=O)[C@@H](N)Cc1ccc(O)cc1)C(=O)N[C@@H](Cc1ccccc1)C(N)=O,5.81,6.74,6.66,7.60,79.7%,6.12,62.9%,29.6 min,150 pmol,Active,0.24 µmol/kg,1.5 h,Active,,,,,Emax [4]: 35.8%; Activity (Mus musculus [14]): inactive; Activity (Mus musculus [15]): inactive; Activity (Mus musculus [16]): Active
N=C(N)NCCC[C@H](NC(=O)[C@H](CCC(N)=O)NC(=O)[C@@H]1CCCN1C(=O)[C@@H]1CSSC[C@H](NC(=O)[C@@H](N)Cc2ccc(O)cc2)C(=O)NCC(=O)N[C@@H](Cc2ccccc2)C(=O)N1)C(=O)N[C@@H](Cc1ccccc1)C(N)=O,6.10,6.51,6.79,7.49,80.2%,6.92,79.6%,28.9 min,182 pmol,Active,0.18 µmol/kg,1.5 h,Active,63.6%,58 min,Active,,
N=C(N)NCCC[C@H](NC(=O)[C@H](CCC(N)=O)NC(=O)[C@@H]1CCCN1C(=O)[C@@H](CS)NC(=O)[C@H](Cc1ccccc1)NC(=O)CNC(=O)[C@@H](CS)NC(=O)[C@@H](N)Cc1ccc(O)cc1)C(=O)N[C@@H](Cc1ccccc1)C(N)=O,6.77,5.64,6.66,6.10,85.7%,6.14,58.4%,30.9 min,1.13 pmol,Active,0.06 µmol/kg,3 h,Active,58.3%,,,3 h,
CN1CC[C@]23c4c5ccc(O)c4O[C@H]2[C@@H](O)C=C[C@H]3[C@H]1C5 [MORPHINE],,,,,,,,,,,,,,,,,,Kp [1]: 0.74
N=C(N)NCCC[C@H](NC(=O)[C@H](CCC(N)=O)NC(=O)[C@@H]1CCCN1C(=O)[C@H]1CSSC[C@@H](NC(=O)[C@@H](N)Cc2ccc(O)cc2)C(=O)NCC(=O)N[C@@H](Cc2ccccc2)C(=O)N1)C(=O)N[C@@H](Cc1ccccc1)C(N)=O,6.71,5.61,6.70,6.44,75.6%,6.72,74.6%,14.6 min,0.001 pmol,Active,0.002 µmol/kg,4 h,Active,63.6%,255 min,Active,3 h,Activity (Mus musculus [20]): Dose-dependent effect; MPE (Mus musculus [21]): 90%; Activity (Mus musculus [12]): Dose-dependent effect; Activity (Mus musculus [22]): 80%; Activity [23]: Non-Toxic; Activity [24]: Non-Toxic; Activity [25]: Non-Toxic; Activity [26]: Toxic; Activity [27]: Non-Toxic; Activity [28]: Dose-dependent effect; ED50 [28]: 0.07 µmol/kg; selectivity ratio [29]: 35
N=C(N)NCCC[C@H](NC(=O)[C@H](CCC(N)=O)NC(=O)[C@@H]1CCCN1C(=O)[C@H]1CSSC[C@H](NC(=O)[C@@H](N)Cc2ccc(O)cc2)C(=O)NCC(=O)N[C@@H](Cc2ccccc2)C(=O)N1)C(=O)N[C@@H](Cc1ccccc1)C(N)=O,5.42,6.13,6.31,6.45,82.8%,6.77,61.6%,17 min,0.21 pmol,Active,0.003 µmol/kg,4 h,Active,60.3%,229 min,Active,3 h,
C[C@@H](NC(=O)[C@@H](N)Cc1ccc(O)cc1)C(=O)NCC(=O)N[C@@H](Cc1ccccc1)C(=O)N[C@@H](CCC(N)=O)C(=O)N1CCC[C@H]1C(=O)N[C@@H](CCC(N)=O)C(=O)N[C@@H](CCCNC(=N)N)C(=O)N[C@@H](Cc1ccccc1)C(N)=O (H-Y[dA]GFQPQRF-NH2),,,,,,,,,390 pmol,Active,1.37 µmol/kg,,Active,,,,,
N=C(N)NCCC[C@H](NC(=O)[C@H](CCC(N)=O)NC(=O)[C@@H]1CCCN1C(=O)[C@@H](CS)NC(=O)[C@H](Cc1ccccc1)NC(=O)CNC(=O)[C@H](CS)NC(=O)[C@@H](N)Cc1ccc(O)cc1)C(=O)N[C@@H](Cc1ccccc1)C(N)=O,6.75,7.12,6.70,6.67,81.8%,6.16,55.1%,31.4 min,6.42 pmol,Active,0.1 µmol/kg,3 h,Active,50.4%,,,3 h,EC50 ([2]; read-out: pEC50 (converted)): 74.1 nM; Activity (Mus musculus [14]): inactive; Activity (Mus musculus [15]): inactive; Activity (Mus musculus [16]): Active
